Results: patent EP4273147A1, “SUBSTITUTED SPIROLACTAMS, SALTS THEREOF AND THEIR USE AS HERBICIDALLY ACTIVE SUBSTANCES” (Bayer Aktiengesellschaft, priority 2022, dated 2023)

How the values were obtained:
[1] = system: DIGSA; assay: Herbicidal pre-emergence action (Table A12); assay type: in vivo, Digitaria sanguinalis; conditions: visual grading after ca. 3 weeks
Text: (§1) Seeds of mono- and dicotyledonous weed plants were sown in plastic pots (double sowings with one species of mono- and one species of dicotyledonous weed plants per pot), in sandy loam, and covered with soil.

[2] = system: VERPE; assay: Herbicidal pre-emergence action (Table A11); assay type: in vivo, Veronica persica; conditions: application rate 1280 g/ha; visual grading after ca. 3 weeks
Text: as §1

[3] = system: POAAN; assay: Herbicidal pre-emergence action (Table A7); assay type: in vivo, Poa annua; conditions: visual grading after ca. 3 weeks; for pest or weed control at 1280 g/ha: Poa annua, pre-emergence, 504 h, read-out: pre-emergence activity against POAAN
Text: as §1

[4] = system: STEME; assay: Herbicidal pre-emergence action (Table A6); assay type: in vivo, Stellaria media; conditions: visual grading after ca. 3 weeks
Text: as §1

[5] = system: ALOMY; assay: Herbicidal pre-emergence action (Table A9); assay type: in vivo, Alopecurus myosuroides; conditions: application rate 1280 g/ha; visual grading after ca. 3 weeks
Text: as §1

[6] = system: LOLRI; assay: Herbicidal pre-emergence action (Table A3); assay type: in vivo, Lolium rigidum; conditions: visual grading after ca. 3 weeks
Text: as §1

[7] = system: ECHCG; assay: Herbicidal pre-emergence action (Table A2); assay type: in vivo, Echinochloa crus-galli; conditions: visual grading after ca. 3 weeks
Text: as §1

[8] = system: POAAN; assay: Herbicidal post-emergence action (Table B7); assay type: in vivo, Poa annua
Protocol: (§2) Seeds of mono- and dicotyledonous weed plants were placed in plastic pots in sandy loam soil (doubly sown with in each case one species of mono- or dicotyledonous weed plants per pot), covered with soil and cultivated in a greenhouse under controlled growth conditions. 2 to 3 weeks after sowing, the test plants were treated at the one-leaf stage. […] After the test plants had been kept in the greenhouse under optimum growth conditions for about 3 weeks, the activity of the preparations was rated visually in comparison to untreated controls. For example, 100% activity = the plants have died, 0% activity = like control plants.

[9] = system: SETVI; assay: Herbicidal pre-emergence action (Table A5); assay type: in vivo, Setaria viridis; conditions: visual grading after ca. 3 weeks
Text: as §1

[10] = system: ECHCG; assay: Herbicidal post-emergence action (Table B3); assay type: in vivo, Echinochloa crus-galli; conditions: application rate 1280 g/ha; rated visually after about 3 weeks
Protocol: as §2

[11] = system: MATIN; assay: Herbicidal pre-emergence action (Table A4); assay type: in vivo, Matricaria inodora; conditions: visual grading after ca. 3 weeks
Text: as §1

[12] = system: KCHSC; assay: Herbicidal pre-emergence action (Table A10); assay type: in vivo, Kochia scoparia; conditions: visual grading after ca. 3 weeks
Text: as §1

[13] = system: VIOTR; assay: Herbicidal pre-emergence action, section C (Table C12); assay type: in vivo, Viola tricolor; conditions: application rate 320 g/ha; visual grading after ca. 3 weeks
[14] = system: ECHCG; assay: Herbicidal pre-emergence action, section C (Table C6); assay type: in vivo, Echinochloa crus-galli; conditions: application rate 320 g/ha; visual grading after ca. 3 weeks

SMILES | pre-emergence activity against POAAN ([3]; application rate 320 g/ha) [%] | pre-emergence activity against STEME ([4]; application rate 1280 g/ha) [%] | pre-emergence activity against ECHCG ([7]; application rate 1280 g/ha) [%] | pre-emergence activity against POAAN ([3]; application rate 1280 g/ha) [%] | pre-emergence activity against SETVI ([9]; application rate 1280 g/ha) [%] | further results
COc1cccc(F)c1CN1CCCC2(CCCN(Cc3c(F)cccc3OC)C2=O)C1=O (racemic) [I-033] | 100 | 100 |  |  |  | pre-emergence activity against DIGSA ([1]; application rate 1280 g/ha): 100%; pre-emergence activity against VERPE [2]: 90%; pre-emergence activity against ALOMY [5]: 90%
O=C1N(Cc2c(F)cccc2F)CCCC12CCCN(CC1CCCCC1)C2=O (racemic) [I-034] | 100 | 100 | 90 |  |  | pre-emergence activity against DIGSA ([1]; application rate 1280 g/ha): 100%; pre-emergence activity against LOLRI ([6]; application rate 1280 g/ha): 100%; post-emergence activity against POAAN ([8]; application rate 1280 g/ha): 90%; pre-emergence activity against SETVI ([9]; application rate 320 g/ha): 90%
O=C1N(Cc2c(F)cccc2C(F)(F)F)CCCC12CCCN(Cc1c(F)cccc1C(F)(F)F)C2=O (racemic) [I-041] |  |  |  | 90 |  | pre-emergence activity against STEME ([4]; application rate 320 g/ha): 100%
Cc1ccccc1CN1CCCC2(CCCN(Cc3cccs3)C2=O)C1=O (racemic) [I-043] | 100 | 90 |  |  | 100 | pre-emergence activity against ECHCG ([7]; application rate 320 g/ha): 100%; post-emergence activity against ECHCG [10]: 90%; post-emergence activity against POAAN ([8]; application rate 320 g/ha): 90%
O=C1N(Cc2ccccc2Cl)CCC12CCCN(Cc1cccc(F)c1F)C2=O (racemic) [I-049] | 100 | 90 | 100 |  |  | pre-emergence activity against DIGSA ([1]; application rate 320 g/ha): 90%; pre-emergence activity against LOLRI ([6]; application rate 320 g/ha): 90%; post-emergence activity against ECHCG [10]: 90%; pre-emergence activity against SETVI ([9]; application rate 320 g/ha): 100%
O=C1N(Cc2c(F)c(F)c(F)c(F)c2F)CCCC12CCCN(Cc1c(F)c(F)c(F)c(F)c1F)C2=O (racemic) [I-050] |  | 100 | 100 | 100 | 100 | post-emergence activity against ECHCG [10]: 100%
O=C1N(Cc2ccccc2)CCCC12CCN(Cc1ccccc1F)C2=O (racemic) [I-059] | 100 | 90 |  |  |  | pre-emergence activity against MATIN ([11]; application rate 1280 g/ha): 90%; pre-emergence activity against DIGSA ([1]; application rate 320 g/ha): 90%; pre-emergence activity against LOLRI ([6]; application rate 1280 g/ha): 100%; pre-emergence activity against KCHSC ([12]; application rate 1280 g/ha): 90%; pre-emergence activity against ECHCG ([7]; application rate 320 g/ha): 100%; post-emergence activity against ECHCG [10]: 90%; post-emergence activity against POAAN ([8]; application rate 1280 g/ha): 90%; pre-emergence activity against SETVI ([9]; application rate 320 g/ha): 100%
O=C1N(Cc2ccccc2Br)CCCC12CCCN(Cc1ccccc1Br)C2=O (racemic) [I-064] |  |  | 90 | 100 | 90 | post-emergence activity against POAAN ([8]; application rate 1280 g/ha): 100%
O=C1N(Cc2ccccc2C(F)F)CCCC12CCCN(Cc1ccccc1C(F)F)C2=O (racemic) [I-067] | 100 |  |  |  | 100 | 
O=C1N(Cc2ccc(F)cc2Cl)CCCC12CCCN(Cc1ccc(F)cc1Cl)C2=O (racemic) [I-070] |  | 90 |  | 100 |  | 
O=C1N(Cc2ccsc2)CCCC12CCCN(Cc1c(F)cccc1F)C2=O (racemic) [I-075] |  | 100 |  | 100 |  | pre-emergence activity against MATIN ([11]; application rate 1280 g/ha): 90%; pre-emergence activity against LOLRI ([6]; application rate 320 g/ha): 100%; pre-emergence activity against ECHCG ([7]; application rate 320 g/ha): 100%; post-emergence activity against ECHCG [10]: 90%; post-emergence activity against POAAN ([8]; application rate 1280 g/ha): 90%; pre-emergence activity against ALOMY [5]: 90%; pre-emergence activity against SETVI ([9]; application rate 320 g/ha): 90%
Cc1ccccc1CN1CCCC2(CCN(Cc3c(F)cccc3F)C2=O)C1=O (racemic) [I-077] | 100 | 90 |  |  | 100 | pre-emergence activity against DIGSA ([1]; application rate 320 g/ha): 90%; pre-emergence activity against LOLRI ([6]; application rate 320 g/ha): 100%
O=C1N(Cc2c(F)ccc(F)c2Cl)CCCC12CCCN(Cc1c(F)ccc(F)c1Cl)C2=O (racemic) [I-078] |  |  |  | 100 |  | pre-emergence activity against STEME ([4]; application rate 320 g/ha): 90%
Cc1ccccc1CN1CCC2(CCCN(Cc3cccc(F)c3F)C2=O)C1=O (racemic) [I-080] | 100 | 90 | 100 |  | 100 | pre-emergence activity against DIGSA ([1]; application rate 1280 g/ha): 100%; pre-emergence activity against LOLRI ([6]; application rate 1280 g/ha): 90%; pre-emergence activity against KCHSC ([12]; application rate 1280 g/ha): 100%
Cc1ccccc1CN1CCCC2(CCN(Cc3cccc(F)c3F)C2=O)C1=O (racemic) [I-081] | 100 | 90 |  |  | 100 | pre-emergence activity against MATIN ([11]; application rate 1280 g/ha): 90%; pre-emergence activity against DIGSA ([1]; application rate 320 g/ha): 90%; pre-emergence activity against LOLRI ([6]; application rate 1280 g/ha): 90%
Cc1ccccc1CN1CCCC2(CCN(Cc3ccccc3F)C2=O)C1=O (racemic) [I-086] |  |  | 100 | 100 | 90 | pre-emergence activity against DIGSA ([1]; application rate 1280 g/ha): 100%
Cc1ccccc1CN1CCC2(CCCN(Cc3ccccc3F)C2=O)C1=O (racemic) [I-088] | 100 | 90 |  |  | 90 | pre-emergence activity against DIGSA ([1]; application rate 320 g/ha): 90%; pre-emergence activity against LOLRI ([6]; application rate 1280 g/ha): 100%; pre-emergence activity against KCHSC ([12]; application rate 320 g/ha): 90%
N#Cc1ccccc1CN1CCCC2(CCCN(Cc3ccccc3C#N)C2=O)C1=O (racemic) [I-094] |  |  |  | 100 | 90 | 
O=C1N(Cc2ccsc2)CCCC12CCCN(Cc1ccccc1Cl)C2=O (racemic) [I-099] |  |  | 100 |  | 100 | pre-emergence activity against LOLRI ([6]; application rate 1280 g/ha): 100%
CCc1cc(CN2CCCC3(CCCN(Cc4cc(CC)no4)C3=O)C2=O)on1 (racemic) [I-100] |  |  | 100 |  |  | pre-emergence activity against LOLRI ([6]; application rate 1280 g/ha): 100%
COc1ccccc1CN1CCCC2(CCCN(c3ccccc3)C2=O)C1=O (racemic) [I-102] |  | 90 | 90 | 90 | 90 | 
O=C1N(Cc2ccsc2)CCCC12CCCN(Cc1ccccc1F)C2=O (racemic) [I-104] | 100 |  |  |  |  | pre-emergence activity against MATIN ([11]; application rate 320 g/ha): 90%; pre-emergence activity against ECHCG ([7]; application rate 320 g/ha): 90%; pre-emergence activity against SETVI ([9]; application rate 320 g/ha): 90%
O=C1N(Cc2cc(Cl)cnc2Cl)CCCC12CCCN(Cc1cc(Cl)cnc1Cl)C2=O (racemic) [I-117] |  |  |  | 100 | 100 | 
O=C1N(Cc2cscc2Br)CCCC12CCCN(Cc1cscc1Br)C2=O (racemic) [I-186, 2,8-bis[(4-bromothiophen-3-yl)methyl]-2,8-diazaspiro[5.5]undecane-1,7-dione] |  |  |  |  |  | pre-emergence activity against DIGSA ([1]; application rate 1280 g/ha): 90%; pre-emergence activity against KCHSC ([12]; application rate 1280 g/ha): 90%
Cc1cc(CN2CCCC3(CCCN(Cc4cc(C)no4)C3=O)C2=O)on1 (racemic) [I-195, 2,8-bis[(3-methyl-1,2-oxazol-5-yl)methyl]-2,8-diazaspiro[5.5]undecane-1,7-dione] |  |  |  |  |  | pest or weed control at 1280 g/ha ([3]; application rate 1280 g/ha): 100%
O=C1N(Cc2cnc(Br)s2)CCCC12CCCN(Cc1cnc(Br)s1)C2=O (racemic) [I-204, 2,8-bis[(2-bromo-1,3-thiazol-5-yl)methyl]-2,8-diazaspiro[5.5]undecane-1,7-dione] |  |  | 100 |  |  | pest or weed control at 1280 g/ha ([3]; application rate 1280 g/ha): 100%; pest or weed control at 1280 g/ha ([6]; Lolium rigidum, pre-emergence, 504 h, application rate 1280 g/ha, read-out: pre-emergence activity against LOLRI): 90%
O=C1N(Cc2ccsc2Br)CCCC12CCCN(Cc1ccsc1Br)C2=O (racemic) [I-216, 2,8-bis[(2-bromothien-3-yl)methyl]-2,8-diazaspiro[5.5]undecane-1,7-dione] |  |  |  |  |  | pest or weed control at 1280 g/ha ([3]; application rate 1280 g/ha): 90%
O=C1N(Cc2cnc(Br)s2)CCCC12CCCN(Cc1cnc(Br)s1)C2=O (single isomer, unassigned; (-)) [I-206, (-)-2,8-bis[(2-bromo-1,3-thiazol-5-yl)methyl]-2,8-diazaspiro[5.5]undecane-1,7-dione] | 100 | 90 | 100 |  | 100 | pre-emergence activity against DIGSA ([1]; application rate 1280 g/ha): 90%; pre-emergence activity against LOLRI ([6]; application rate 1280 g/ha): 90%
O=C1N(Cc2cc(F)c(F)cc2F)CCCC12CCCN(Cc1cc(F)c(F)cc1F)C2=O (single isomer, unassigned; (-)) [I-214, (-)-2,8-bis(2,4,5-trifluorophenylmethyl)-2,8-diazaspiro[5.5]undecane-1,7-dione] |  |  |  |  |  | pre-emergence activity against VIOTR [13]: 80%; pre-emergence activity against ECHCG [14]: 100%
